Test results as given in publication PMC11093748, “De novo identification of CD4^+ T cell epitopes” (Nature Methods, 2024).

Assays:
Experiment in all cases: I-Ag7 SABR-II library screen, enrichment score
Type in all cases: cell-based, mouse
[1] = test system: TCR30; settings: for Enrichment score: TCR_Mean minus PREDICTED_TCR (slope 0.934363, intercept 1.61073e-5 on LIB_Mean), TCR 30, run PZ98
Description: (§1) We then asked whether SABR-IIs could be used to present a library of epitopes for CD4^+ T cell antigen discovery. To that end, we constructed a SABR-II library to present epitopes derived from pancreatic islets in I-Ag7 by curating a list of 4,075 published epitopes from the Immune Epitope Database (iedb.org)[50] and a study by Wan et al.[51] (Supplementary Table 1). Of note, this defined library consisted of unmodified epitopes from endogenous proteins, synthetic mimotopes, deamidated epitopes and hybrid insulin peptides (HIPs) that arise from post-translational fusion and are not genetically encoded in vivo[52],[53]. The epitope library was inserted into the I-Ag7 SABR-II backbone through pooled oligonucleotide synthesis, amplification and ligation-free cloning (Extended Data Fig. 3a). The I-Ag7 SABR-II-library was then expressed in NFAT–GFP Jurkat cells. We confirmed that after sequencing, the library accounted for a mean of 708 reads per epitope (Extended Data Fig. 3b). As a proof of concept, we performed co-incubation assays with Jurkat cells expressing the BDC2.5 TCR and sorted the top 1–2% of GFP^+CD69^+ cells at a rate of ~20 min per replicate with three replicates per TCR. We extracted the genomic DNA from sorted cells, amplified the SABR portion of the integrated proviruses and subjected the amplicons to Illumina sequencing (Extended Data Fig. 3c,d). The 1–2% sort gate represents >50-fold enrichment of cognate epitopes with minimal loss of signal (Extended Data Fig. 3e–h). Sequence reads were aligned to the I-Ag7 SABR-II backbone and the corresponding epitopes were scored based on their read counts. For each TCR under investigation, an enrichment score (ES) was determined for all the epitopes in a library. In each experiment, three replicates of a sort with TCR-expressing Jurkat cells were performed and reads were counted post-sequencing. In addition, three replicates of the unsorted library were also sequenced. A linear regression model was built using the unsorted library counts and used to determine the expected abundance of each epitope in the library. The ES was calculated based on the difference between the measured and the expected abundance of each epitope on a per-TCR basis (Fig. 1e). Based on ES values, two quantitative thresholds were used to determine putative cognate epitopes of a given TCR. A high-confidence zone containing clear outliers with a high ES and a low-confidence zone containing weak outliers with a moderately high ES were determined (Fig. 1e). This two-tiered strategy was used to call putative hits from screens. All the top-scoring epitopes for the BDC2.5 TCR were known BDC2.5 ligands containing the WXRM(D/E) motif (Fig. 1f,g, enriched ligands in red), a well-characterized trait of the BDC2.5 TCR[43],[54]–[56]. Across several independent experiments there was limited variation in ES values for the same TCRs and several epitopes fell into high- or low-confidence zones consistently (Extended Data Fig. 4a). Using a different TCR that was isolated from NOD mice, 4-8Ins[57], which recognized the InsB9:23 epitope ([…]), we observed a similar pattern of ES for cognate epitopes (Extended Data Fig. 4b).
(§2) We performed systematic screening of the cloned TCRs against the I-Ag7 SABR-II library. Several TCRs along with a positive control (such as BDC2.5 or 4-8Ins) were screened individually against the library for each sort (Extended Data Fig. 6a and Supplementary Table 4). High- and low-confidence ES zones for each screened TCR were defined by the ES values of the control TCR’s cognate epitopes. For all putative cognate epitopes, single SABR-IIs were constructed, expressed in NFAT–GFP Jurkat cells and used for co-incubation with the corresponding TCRs. Co-incubation assays that yielded a GFP signal higher than that obtained in assays with no TCR were determined to be positive and the epitopes deemed true cognate ligands (Extended Data Fig. 6b,c). […]

[2] = test system: TCR23
Description: as §1, §2

[3] = test system: TCR15; settings: for Enrichment score: TCR15, TCR_Mean minus PREDICTED_TCR (from LIB_Mean, SLOPE 0.918454, INTERCEPT 2.00113e-5), PZ37
Description: as §1, §2

[4] = test system: TCR4; settings: for Enrichment score: sheet TCR4-PZ44, ES = TCRObserved - TCRPredicted, TCRPredicted = LIBObserved x SLOPE + INTERCEPT, SLOPE 0.903208, INTERCEPT 2.37527e-5
Description: as §1, §2

[5] = test system: TCR11; settings: for Enrichment score: TCR11, TCR_Mean minus PREDICTED_TCR (from LIB_Mean, SLOPE 0.869084, INTERCEPT 3.21267e-5), PZ51
Description: as §1, §2

[6] = test system: TCR37; settings: for Enrichment score: TCR_Mean minus PREDICTED_TCR (slope 0.904637, intercept 2.34021e-5 on LIB_Mean), TCR 37, run PZ57
Description: as §1, §2

[7] = test system: TCR24; settings: for Enrichment score: TCR_Mean minus PREDICTED_TCR (slope 0.96363, intercept 8.9252e-6 on LIB_Mean), TCR 24, run PZ98
Description: as §1, §2

[8] = test system: 4-8Ins TCR
Procedure, shortened: (§3)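 NFAT–GFP Jurkat cells expressing an I-Ag7 SABR-II library of 4,075 islet-derived epitopes, CellTrace Violet-labelled, were co-incubated 16–20 h with equal numbers of TCR-expressing Jurkat cells. The top 1–2% GFP+CD69+ cells were sorted and epitopes sequenced, in triplicate. Enrichment score = measured minus expected abundance, from linear regression on unsorted library counts.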

[9] = test system: BDC2.5 TCR; settings: for Enrichment score: I-Ag7 library; for Enrichment score EXPT1 / Enrichment score EXPT2 / Enrichment score EXPT3 / Enrichment score EXPT5 / Enrichment score EXPT7 / Enrichment score EXPT8: sheet Fig 1F, whole library; for Enrichment score EXPT1: independent biological experiment 1 of 8; for Enrichment score EXPT2: independent biological experiment 2 of 8; for Enrichment score EXPT3: independent biological experiment 3 of 8; for Enrichment score EXPT5: independent biological experiment 5 of 8; for Enrichment score EXPT7: independent biological experiment 7 of 8; for Enrichment score EXPT8: independent biological experiment 8 of 8
Procedure, shortened: as §3

[10] = I-Ag7 library, one biological experiment
[11] = TCR_Mean minus PREDICTED_TCR (slope 0.987149, intercept 3.15366e-6 on LIB_Mean), TCR 23, run PZ56
[12] = EXPT1 of 3 biological experiments
[13] = EXPT1 of 8 biological experiments
[14] = one biological experiment (Ext. Data Fig. 6B)

| Sequence | Enrichment score [1] | Enrichment score [2, 10] | Enrichment score [2, 11] | Enrichment score [3] | Enrichment score [4] | Enrichment score [5] | Enrichment score [6] | Enrichment score [7] | Enrichment score [8, 12] | Enrichment score ([8]; EXPT2 of 3) | Enrichment score ([8]; EXPT3 of 3) | Enrichment score [9, 13] | Enrichment score ([9]; EXPT2 of 8) | Enrichment score ([9]; EXPT3 of 8) | Enrichment score ([9]; EXPT4 of 8) | Enrichment score ([9]; EXPT6 of 8) | Enrichment score ([9]; EXPT7 of 8) | Enrichment score ([9]; EXPT8 of 8) | Enrichment score [9, 14] | Enrichment score EXPT1 [9] | also measured |
| --- | --- | --- | --- | --- | --- | --- | --- | --- | --- | --- | --- | --- | --- | --- | --- | --- | --- | --- | --- | --- | --- |
| AAVEEGIVAGGGVTLL | -2.605e-6 | -9.242e-5 | 8.213e-5 | -0.000165 | 3.881e-5 | 9.192e-5 | -4.879e-5 | 0.0001615 | 6.335e-5 | -6.366e-5 | -1.563e-5 | -2.818e-5 | -9.793e-5 | 0.0001628 | -0.0001173 | 0.0001045 | -9.918e-5 | -0.0001409 | 0.0001628 | -9.793e-5 | Enrichment score EXPT2 [9]: -2.818e-5; Enrichment score EXPT3 [9]: 0.0001628; Enrichment score EXPT5 [9]: 9.606e-5; Enrichment score EXPT7 [9]: -9.918e-5; Enrichment score EXPT8 [9]: -0.0001409 |
| AEKVRNLPAGHGLNAQ | 0.0001445 | 8.732e-6 | 0.0001238 | 0.000168 | -5.549e-7 | 0.0002492 | 0.0002899 | 0.0001713 | -3.1932e-6 | 0.0001517 | -4.244e-5 | 2.296e-5 | 1.2173e-5 | 6.168e-6 | 0.0002539 | -2.745e-5 | 9.062e-5 | 9.25e-5 | 6.168e-6 | 1.2173e-5 | Enrichment score EXPT2 [9]: 2.296e-5; Enrichment score EXPT3 [9]: 6.168e-6; Enrichment score EXPT5 [9]: 8.842e-5; Enrichment score EXPT7 [9]: 9.062e-5; Enrichment score EXPT8 [9]: 9.25e-5 |
| AGGVAVIKAGAATEV | -2.42e-5 | -9.6548e-5 | -7.52e-5 | 2.956e-5 | 2.046e-5 | -2.692e-5 | -0.0001031 | -1.094e-5 | 2.615e-5 | -2.489e-5 | 4.9e-5 | -4.65e-5 | 5.397e-5 | 2.078e-5 | 2.834e-5 | -5.5015e-5 | -7.0061e-5 | -2.822e-5 | 2.078e-5 | 5.397e-5 | Enrichment score EXPT2 [9]: -4.65e-5; Enrichment score EXPT3 [9]: 2.078e-5; Enrichment score EXPT5 [9]: 9.8885e-5; Enrichment score EXPT7 [9]: -7.0061e-5; Enrichment score EXPT8 [9]: -2.822e-5 |
| LQTLALNAARDP |  |  |  |  |  |  |  |  |  |  |  |  |  |  |  |  |  |  |  |  | recognition by TCR (screen hit, validated by single SABR-II co-incubation) ([3]; high-confidence zone): recognized; recognition by TCR (screen hit, validated by single SABR-II co-incubation) ([4]; high-confidence zone): recognized |
| SHLVEALYLVCGERG |  |  |  |  |  |  |  |  |  |  |  |  |  |  |  |  |  |  |  |  | recognition by TCR (screen hit, validated by single SABR-II co-incubation) ([1]; low-confidence hit): confirmation of reactivity; recognition by TCR (screen hit, validated by single SABR-II co-incubation) ([5]; low-confidence hit): confirmation of reactivity; recognition by TCR (screen hit, validated by single SABR-II co-incubation) ([6]; high-confidence zone): recognized; recognition by TCR (screen hit, validated by single SABR-II co-incubation) ([7]; high-confidence zone): recognized |
